# * marks the point of attachment. Palmitoyl = CCCCCCCCCCCCCCCC(=O)*
# Legend:
# [1] = tested on: chicken chorioallantoic membrane (CAM); test: Shell-less chicken chorioallantoic membrane (CAM) angiogenesis assay; format: in vivo; settings: 2 mM in PBS dried on coverslip, three days following treatment; saline 132%
# From the text: An established assay reflecting in vivo angiogenesis, the chicken chorioallantoic membrane (CAM) assay, was used to evaluate the angiogenic potential of the VEGF-PA of the present examples. This assay utilizes the extra-embryonic allantois, a tissue derived from the mesoderm that develops into a densely vascularized membrane. A common deviation from the traditional assay is to remove the shell and conduct the assay on a shell-less embryo, termed the shell-less CAM assay, as we have performed here. Fertilized white leghorn chicken eggs (Phil's Fresh Eggs, Forreston, Ill.) were received and cultured in a temperature controlled, humidified egg incubator. On embryonic day 3, eggs were cracked within a sterile tissue culture hood into round 100 mm petri dishes. Fertilized embryos were then transferred to a water-jacketed CO2 incubator, set to 37.5° C., 1% CO2 and 100% relative humidity. On embryonic day 10, the material treatment was dissolved at 2 mM in PBS, evaporated onto the surface of a 5 mm round glass cover slip, and placed facing down on top of the CAM (n=16/group). Digital images were captured through the eyepiece of a Nikon stereomicroscope and vessel density was quantified by the number of intersections of vessel structures with the edge of the cover slip and expressed relative to the initial time-point. Images were captured daily, beginning at embryonic day 10 and culminating on embryonic day 13, the standard range over which the CAM assay is performed. Additionally, images were assessed qualitatively for morphological differences in the CAM vasculature including spoking, branching and leakage.
# [2] = tested on: HUVECs; test: HUVEC survival after serum-starvation (Annexin V-PE apoptosis); format: cell-based, human; settings: 1 μM in EBM, serum-starvation 24 hours; untreated 31.7%
# Description: To evaluate cell survival, endothelial basal media (EBM) without growth factors (Lonza) was used to induce a serum-starvation. Cells were plated in 12 well plates and grown to confluence with standard growth media. […] Cells were grown in these conditions for 24 hours. Survival was quantified using Annexin V: PE staining with 7-AAD vital staining (BD Biosciences) following provided assay instructions and analyzed on a DakoCytomation CyAn. Survival was assessed by determining the fraction of cells that were apoptotic (Annexin V-PE positive).
substance,measurement,setting,value
CH3(CH2)14C(O)— VVAAKKKGKLTWQELYQLKYKGI-NH2 (Palmitoyl-VVAAKKKGKLTWQELYQLKYKGI-NH2; SMILES CCCCCCCCCCCCCCCC(=O)N[C@H](C(=O)N[C@H](C(=O)N[C@@H](C)C(=O)N[C@@H](C)C(=O)N[C@@H](CCCCN)C(=O)N[C@@H](CCCCN)C(=O)N[C@@H](CCCCN)C(=O)NCC(=O)N[C@@H](CCCCN)C(=O)N[C@@H](CC(C)C)C(=O)N[C@H](C(=O)N[C@@H](Cc1c[nH]c2ccccc12)C(=O)N[C@@H](CCC(N)=O)C(=O)N[C@@H](CCC(=O)O)C(=O)N[C@@H](CC(C)C)C(=O)N[C@@H](Cc1ccc(O)cc1)C(=O)N[C@@H](CCC(N)=O)C(=O)N[C@@H](CC(C)C)C(=O)N[C@@H](CCCCN)C(=O)N[C@@H](Cc1ccc(O)cc1)C(=O)N[C@@H](CCCCN)C(=O)NCC(=O)N[C@H](C(N)=O)[C@@H](C)CC)[C@@H](C)O)C(C)C)C(C)C) [VEGF-PA],blood vessels relative to the initial value,[1],229%±19%
same,fraction of apoptotic cells (Annexin V-PE positive),[2],10.2%±3.2%
